Experimental data taken from patent US20250098679A1, “HERBICIDAL PYRIDONE DERIVATIVES” (SYNGENTA CROP PROTECTION AG, priority 2021, published 2025).

Experiments:
Assay type in all cases: in vivo
[1] = tested on: Ipomoea hederacea (IPOHE); experiment: Pre-emergence Test, Ipomoea hederacea (IPOHE); conditions: evaluated after 13 days
[2] = tested on: Amaranthus retoflexus (AMARE); experiment: Post-emergence Test, Amaranthus retoflexus (AMARE); design: key to percentage damage caused to the plant, AMARE (five-point scale): 5=81-100%, 4=61-80%, 3=41-60%, 2=21-40%, 1=0-20% damage; conditions: evaluated after 13 days
Method in brief: (§1)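 Percent plant damage was rated 13 days post-application on a 1–5 scale (1=0-20%, 5=81-100%). Application used an aqueous acetone (50:50)/0.5% Tween 20 spray, normally 1000 g/ha, with controlled glasshouse conditions (24/16 °C, 14 h light, 65% humidity).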

Zea mays (ZEAMX) [3] = experiment: Pre-emergence Test, Zea mays (ZEAMX); conditions: evaluated after 13 days
[4] = tested on: Amaranthus palmeri (AMAPA); experiment: Pre-emergence Test, Amaranthus palmeri (AMAPA); conditions: evaluated after 13 days
[5] = tested on: Echinochloa crus-galli (ECHCG); experiment: Pre-emergence Test, Echinochloa crus-galli (ECHCG); conditions: evaluated after 13 days
Setaria faberi (SETFA) = experiment: Post-emergence Test, Setaria faberi (SETFA); design: key to percentage damage caused to the plant, SETFA (five-point scale): 5=81-100%, 4=61-80%, 3=41-60%, 2=21-40%, 1=0-20% damage; conditions: 1000 g/ha, evaluated after 13 days
Method in brief: as §1

[6] = tested on: Amaranthus retoflexus (AMARE); experiment: Pre-emergence Test, Amaranthus retoflexus (AMARE); conditions: evaluated after 13 days
[7] = tested on: Echinochloa crus-galli (ECHCG); experiment: Post-emergence Test, Echinochloa crus-galli (ECHCG); design: key to percentage damage caused to the plant, ECHCG (five-point scale): 5=81-100%, 4=61-80%, 3=41-60%, 2=21-40%, 1=0-20% damage; conditions: evaluated after 13 days; for percentage damage caused to the plant, ECHCG (five-point scale): 250 g/Ha
Method in brief: as §1

Zea mays (ZEAMX) [8] = experiment: Post-emergence Test, Zea mays (ZEAMX); design: key to percentage damage caused to the plant, ZEAMX (five-point scale): 5=81-100%, 4=61-80%, 3=41-60%, 2=21-40%, 1=0-20% damage; conditions: evaluated after 13 days
Method in brief: as §1

[9] = tested on: Ipomoea hederacea (IPOHE); experiment: Post-emergence Test, Ipomoea hederacea (IPOHE); design: key to percentage damage caused to the plant, IPOHE (five-point scale): 5=81-100%, 4=61-80%, 3=41-60%, 2=21-40%, 1=0-20% damage; conditions: evaluated after 13 days
Method in brief: as §1

[10] = tested on: Amaranthus palmeri (AMAPA); experiment: Post-emergence Test, Amaranthus palmeri (AMAPA); design: key: 5=81-100%, 4=61-80%, 3=41-60%, 2=21-40%, 1=0-20% damage; conditions: evaluated after 13 days
Method in brief: as §1

Row | SMILES | Pre-emergence Test IPOHE, percentage damage caused to the plant (five-point scale) ([1]; 250 g/Ha (*)) | Pre-emergence Test IPOHE, percentage damage caused to the plant (five-point scale) ([1]; 1000 g/ha) | percentage damage caused to the plant, AMARE (five-point scale) ([2]; 250 g/Ha) | percentage damage caused to the plant, AMARE (five-point scale) ([2]; 1000 g/ha) | Pre-emergence Test ZEAMX, percentage damage caused to the plant (five-point scale) (Zea mays (ZEAMX) [3]; 250 g/Ha (*)) | Pre-emergence Test ZEAMX, percentage damage caused to the plant (five-point scale) (Zea mays (ZEAMX) [3]; 1000 g/ha) | Pre-emergence Test AMAPA, percentage damage caused to the plant (five-point scale) ([4]; 250 g/Ha (*)) | Pre-emergence Test AMAPA, percentage damage caused to the plant (five-point scale) ([4]; 1000 g/ha) | Pre-emergence Test ECHCG, percentage damage caused to the plant (five-point scale) ([5]; 250 g/Ha (*)) | Pre-emergence Test ECHCG, percentage damage caused to the plant (five-point scale) ([5]; 1000 g/ha) | percentage damage caused to the plant, SETFA (five-point scale) (Setaria faberi (SETFA)) | Pre-emergence Test AMARE, percentage damage caused to the plant (five-point scale) ([6]; 250 g/Ha (*)) | Pre-emergence Test AMARE, percentage damage caused to the plant (five-point scale) ([6]; 1000 g/ha) | percentage damage caused to the plant, ECHCG (five-point scale) [7] | percentage damage caused to the plant, ZEAMX (five-point scale) (Zea mays (ZEAMX) [8]; 250 g/Ha) | percentage damage caused to the plant, ZEAMX (five-point scale) (Zea mays (ZEAMX) [8]; 1000 g/ha) | percentage damage caused to the plant, IPOHE (five-point scale) ([9]; 250 g/Ha) | percentage damage caused to the plant, IPOHE (five-point scale) ([9]; 1000 g/ha) | percentage damage caused to the plant, AMAPA (five-point scale) ([10]; 250 g/Ha) | percentage damage caused to the plant, AMAPA (five-point scale) ([10]; 1000 g/ha) | other results
1 | CCn1c(Cn2ccc(OCC(F)F)n2)cc(=O)c(C(=O)O)c1-c1ccc(Cl)c(Cl)c1 [Compound 165, 2-(3,4-dichlorophenyl)-6-[[3-(2,2-difluoroethoxy)pyrazol-1-yl]methyl]-1-ethyl-4-oxo-pyridine-3-carboxylic acid] | 3 (3=41-60%) | 4 (4=61-80%) | 1 (1=0-20%) | 3 (3=41-60%) | 1 (1=0-20%) | 4 (4=61-80%) | 0 | 2 (2=21-40%) | 4 (4=61-80%) | 5 (5=81-100%) | 4 (4=61-80%) | 0 | 1 (1=0-20%) | 3 (3=41-60%) | 2 (2=21-40%) | 3 (3=41-60%) | 4 (4=61-80%) | 4 (4=61-80%) | 1 (1=0-20%) | 2 (2=21-40%) | –
2 | CCn1c(Cn2ccc(C3CC3)n2)cc(=O)c(C(=O)O)c1-c1ccc(Cl)c(Cl)c1 [Compound 179, 6-[(3-cyclopropylpyrazol-1-yl)methyl]-2-(3,4-dichlorophenyl)-1-ethyl-4-oxo-pyridine-3-carboxylic acid] | 0 | 4 (4=61-80%) | 0 | 3 (3=41-60%) | 0 | 5 (5=81-100%) | 0 | 2 (2=21-40%) | 1 (1=0-20%) | 5 (5=81-100%) | 4 (4=61-80%) | – | 4 (4=61-80%) | 3 (3=41-60%) | 3 (3=41-60%) | 4 (4=61-80%) | 4 (4=61-80%) | 4 (4=61-80%) | 1 (1=0-20%) | 3 (3=41-60%) | –
3 | CCn1c(Cn2ccc(COC)n2)cc(=O)c(C(=O)O)c1-c1ccc(Cl)c(Cl)c1 [Compound 162, 2-(3,4-dichlorophenyl)-1-ethyl-6-[[3-(methoxymethyl)pyrazol-1-yl]methyl]-4-oxo-pyridine-3-carboxylic acid] | 1 (1=0-20%) | 4 (4=61-80%) | 1 (1=0-20%) | 2 (2=21-40%) | 1 (1=0-20%) | 4 (4=61-80%) | 0 | 1 (1=0-20%) | 3 (3=41-60%) | 5 (5=81-100%) | 5 (5=81-100%) | 1 (1=0-20%) | 3 (3=41-60%) | 3 (3=41-60%) | 1 (1=0-20%) | 3 (3=41-60%) | 2 (2=21-40%) | 4 (4=61-80%) | 1 (1=0-20%) | 2 (2=21-40%) | –
4 | CCn1c(Cn2ccc(-c3cnccn3)n2)cc(=O)c(C(=O)O)c1-c1ccc(Cl)c(Cl)c1 [Compound 203, 2-(3,4-dichlorophenyl)-1-ethyl-4-oxo-6-[(3-pyrazin-2-ylpyrazol-1-yl)methyl]pyridine-3-carboxylic acid] | – | 0 | – | – | – | 1 (1=0-20%) | – | 1 (1=0-20%) | – | 2 (2=21-40%) | – | – | 1 (1=0-20%) | – | – | – | – | – | – | – | Post-emergence Test AMARE, percentage damage caused to the plant (five-point scale) ([2]; 250 g/Ha (*)): 1 (1=0-20%); Post-emergence Test AMARE, percentage damage caused to the plant (five-point scale) ([2]; 1000 g/ha): 0; Post-emergence Test SETFA, percentage damage caused to the plant (five-point scale) (Setaria faberi (SETFA)): 1 (1=0-20%); Post-emergence Test ECHCG, percentage damage caused to the plant (five-point scale) ([7]; 250 g/Ha (*)): 1 (1=0-20%); Post-emergence Test ZEAMX, percentage damage caused to the plant (five-point scale) (Zea mays (ZEAMX) [8]; 250 g/Ha (*)): 1 (1=0-20%); Post-emergence Test ZEAMX, percentage damage caused to the plant (five-point scale) (Zea mays (ZEAMX) [8]; 1000 g/ha): 1 (1=0-20%); Post-emergence Test IPOHE, percentage damage caused to the plant (five-point scale) ([9]; 250 g/Ha (*)): 2 (2=21-40%); Post-emergence Test IPOHE, percentage damage caused to the plant (five-point scale) ([9]; 1000 g/ha): 1 (1=0-20%); Post-emergence Test AMAPA, percentage damage caused to the plant (five-point scale) ([10]; 250 g/Ha (*)): 1 (1=0-20%); Post-emergence Test AMAPA, percentage damage caused to the plant (five-point scale) ([10]; 1000 g/ha): 0
5 | CCn1c(Cn2ccc(-c3ccc(F)cc3)n2)cc(=O)c(C(=O)O)c1-c1ccc(Cl)c(Cl)c1 [Compound 193, 2-(3,4-dichlorophenyl)-1-ethyl-6-[[3-(4-fluorophenyl)pyrazol-1-yl]methyl]-4-oxo-pyridine-3-carboxylic acid] | – | 1 (1=0-20%) | 0 | 1 (1=0-20%) | – | 0 | – | 0 | – | 0 | 0 | – | 0 | 3 (3=41-60%) | 0 | 1 (1=0-20%) | 0 | 2 (2=21-40%) | 0 | 1 (1=0-20%) | –
6 | CCn1c(Cn2nc(C(F)F)cc2C)cc(=O)c(C(=O)O)c1-c1ccc(Cl)c(Cl)c1 [Compound 187, 2-(3,4-dichlorophenyl)-6-[[3-(difluoromethyl)-5-methyl-pyrazol-1-yl]methyl]-1-ethyl-4-oxo-pyridine-3-carboxylic acid] | – | 3 (3=41-60%) | 0 | 1 (1=0-20%) | – | 1 (1=0-20%) | – | 0 | – | 1 (1=0-20%) | 1 (1=0-20%) | – | 0 | 2 (2=21-40%) | 0 | 1 (1=0-20%) | 1 (1=0-20%) | 4 (4=61-80%) | 0 | 1 (1=0-20%) | –
